Where two headings read alike, the source gives them in different places.
Assays:
[1] = system: HUH7 (human hepatoma cell line); test: Cell death detection, trypan blue exclusion assay, HUH7, in combination with AZD-6244; type: cell-based; conditions: HUH7, 6-day treatment; for Cell Death (%) in combination with AZD-6244: compound 0.5 μM
Procedure: (§1) Biological Test 2. Cell Death Detection Using Trypan Blue Exclusion Assay.
(§2) After drug treatment, cells were harvested by trypsinization with trypsin/EDTA for 10 min at 37° C. As some apoptotic cells detached from the culture substratum into the medium, these cells were also collected by centrifugation of the medium at 1,200 rpm for 5 min. The pooled cell pellets were resuspended and mixed with trypan blue dye. After Trypan blue stain was done, cells were counted by using a light microscope and a hemocytometer. Blue dye-incorporating cells were scored as being dead. Five hundred cells from randomly chosen fields were counted, and the number of dead cells was counted and expressed as a percentage of the total number of cells counted as shown in Tables 2 to 8 below.

BRAF = BRAF (Homo sapiens, UniProt P15056); test: In vitro kinase assay (Invitrogen SelectScreen Profiling Service), BRAF; type: biochemical
Procedure: (§3) Biological Test 1. In Vitro Kinase Assay for BRAF, FLT3 and KDR(VEGFR2) The inhibitory activities of the compounds of the invention were measured by Invitrogen's SelectScreen® Profiling Service.

FLT3 = biological target: T1, FLT3 (Homo sapiens, UniProt P36888); test: In vitro kinase assay (Invitrogen SelectScreen Profiling Service), FLT3; type: biochemical; conditions: FLT3, 0.1 μM
T1 sequence (P36888 27-993): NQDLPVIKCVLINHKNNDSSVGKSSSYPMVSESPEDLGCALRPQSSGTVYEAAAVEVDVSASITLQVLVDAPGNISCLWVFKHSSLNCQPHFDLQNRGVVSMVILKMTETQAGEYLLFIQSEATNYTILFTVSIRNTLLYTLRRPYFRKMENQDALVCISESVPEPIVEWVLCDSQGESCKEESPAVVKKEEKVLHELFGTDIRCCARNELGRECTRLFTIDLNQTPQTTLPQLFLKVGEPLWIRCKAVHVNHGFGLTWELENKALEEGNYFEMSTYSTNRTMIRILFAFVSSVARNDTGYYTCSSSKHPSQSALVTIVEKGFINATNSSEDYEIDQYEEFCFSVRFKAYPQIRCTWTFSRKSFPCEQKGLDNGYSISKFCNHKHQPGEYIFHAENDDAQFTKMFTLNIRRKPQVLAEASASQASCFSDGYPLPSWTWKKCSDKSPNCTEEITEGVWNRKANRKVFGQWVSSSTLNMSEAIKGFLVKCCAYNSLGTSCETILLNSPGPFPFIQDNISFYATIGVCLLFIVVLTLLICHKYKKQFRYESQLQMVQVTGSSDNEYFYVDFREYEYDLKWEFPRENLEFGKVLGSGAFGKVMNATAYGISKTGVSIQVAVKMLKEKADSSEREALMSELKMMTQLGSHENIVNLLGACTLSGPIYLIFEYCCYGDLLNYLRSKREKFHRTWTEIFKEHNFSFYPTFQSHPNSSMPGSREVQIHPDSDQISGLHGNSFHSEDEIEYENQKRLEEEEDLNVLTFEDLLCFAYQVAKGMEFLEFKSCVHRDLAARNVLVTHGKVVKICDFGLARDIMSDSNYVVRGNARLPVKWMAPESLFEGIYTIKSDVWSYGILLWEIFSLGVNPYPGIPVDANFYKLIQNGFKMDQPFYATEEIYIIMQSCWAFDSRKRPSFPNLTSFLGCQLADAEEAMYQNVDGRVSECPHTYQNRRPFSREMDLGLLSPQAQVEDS
Procedure: as §3

KDR(VEGFR2) = KDR(VEGFR2) (Homo sapiens, UniProt P35968); test: In vitro kinase assay (Invitrogen SelectScreen Profiling Service), KDR; type: biochemical
Procedure: as §3

[2] = system: Hep3B (human hepatoma cell line); test: Cell death detection, trypan blue exclusion assay, Hep3B; type: cell-based; conditions: 5-day treatment
Procedure: as §1, §2

[3] = system: HepG2 (human Hepatocellular carcinoma cell line); test: Cell death detection, trypan blue exclusion assay, HepG2; type: cell-based; conditions: HepG2, 5-day treatment
Procedure: as §1, §2

[4] = system: HT29 (human colon adenocarcinoma cell line); test: Cell death detection, trypan blue exclusion assay, HT29; type: cell-based; conditions: HT29, 5-day treatment
Procedure: as §1, §2

[5] = system: HUH7 (human hepatoma cell line); test: Cell death detection, trypan blue exclusion assay, HUH7; type: cell-based; conditions: Huh-7, 168 h, HUH7, 7-day treatment, read-out: Cell Death (%) at Tested Concentration
Procedure: as §1, §2

[6] = system: LNCaP (human prostate adenocarcinoma cell line); test: Cell death detection, trypan blue exclusion assay, LNCaP; type: cell-based; conditions: read-out: Cell Death (%) at Tested Concentration
Procedure: as §1, §2

Sequence of BRAF (P15056 whole entry): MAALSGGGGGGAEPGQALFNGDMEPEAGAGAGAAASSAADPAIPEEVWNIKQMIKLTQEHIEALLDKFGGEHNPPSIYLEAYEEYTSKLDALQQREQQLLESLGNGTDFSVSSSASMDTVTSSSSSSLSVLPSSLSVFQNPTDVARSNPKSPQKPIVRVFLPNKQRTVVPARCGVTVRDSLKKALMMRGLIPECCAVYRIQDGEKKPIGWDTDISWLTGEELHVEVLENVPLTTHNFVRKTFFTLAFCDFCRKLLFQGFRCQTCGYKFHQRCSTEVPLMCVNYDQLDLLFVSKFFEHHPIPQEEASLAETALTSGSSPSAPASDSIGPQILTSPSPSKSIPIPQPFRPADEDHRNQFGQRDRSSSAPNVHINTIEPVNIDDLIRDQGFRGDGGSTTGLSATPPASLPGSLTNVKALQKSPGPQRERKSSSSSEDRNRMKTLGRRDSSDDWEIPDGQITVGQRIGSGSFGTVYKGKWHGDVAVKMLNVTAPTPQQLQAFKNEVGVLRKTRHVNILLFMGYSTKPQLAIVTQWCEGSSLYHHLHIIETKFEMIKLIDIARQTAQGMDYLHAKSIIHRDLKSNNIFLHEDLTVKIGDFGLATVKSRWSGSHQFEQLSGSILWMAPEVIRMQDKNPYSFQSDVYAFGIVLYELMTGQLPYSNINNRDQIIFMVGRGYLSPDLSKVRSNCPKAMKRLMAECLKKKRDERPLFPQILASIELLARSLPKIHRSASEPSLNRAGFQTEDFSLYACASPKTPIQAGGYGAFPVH
Sequence of KDR(VEGFR2) (P35968 20-1356): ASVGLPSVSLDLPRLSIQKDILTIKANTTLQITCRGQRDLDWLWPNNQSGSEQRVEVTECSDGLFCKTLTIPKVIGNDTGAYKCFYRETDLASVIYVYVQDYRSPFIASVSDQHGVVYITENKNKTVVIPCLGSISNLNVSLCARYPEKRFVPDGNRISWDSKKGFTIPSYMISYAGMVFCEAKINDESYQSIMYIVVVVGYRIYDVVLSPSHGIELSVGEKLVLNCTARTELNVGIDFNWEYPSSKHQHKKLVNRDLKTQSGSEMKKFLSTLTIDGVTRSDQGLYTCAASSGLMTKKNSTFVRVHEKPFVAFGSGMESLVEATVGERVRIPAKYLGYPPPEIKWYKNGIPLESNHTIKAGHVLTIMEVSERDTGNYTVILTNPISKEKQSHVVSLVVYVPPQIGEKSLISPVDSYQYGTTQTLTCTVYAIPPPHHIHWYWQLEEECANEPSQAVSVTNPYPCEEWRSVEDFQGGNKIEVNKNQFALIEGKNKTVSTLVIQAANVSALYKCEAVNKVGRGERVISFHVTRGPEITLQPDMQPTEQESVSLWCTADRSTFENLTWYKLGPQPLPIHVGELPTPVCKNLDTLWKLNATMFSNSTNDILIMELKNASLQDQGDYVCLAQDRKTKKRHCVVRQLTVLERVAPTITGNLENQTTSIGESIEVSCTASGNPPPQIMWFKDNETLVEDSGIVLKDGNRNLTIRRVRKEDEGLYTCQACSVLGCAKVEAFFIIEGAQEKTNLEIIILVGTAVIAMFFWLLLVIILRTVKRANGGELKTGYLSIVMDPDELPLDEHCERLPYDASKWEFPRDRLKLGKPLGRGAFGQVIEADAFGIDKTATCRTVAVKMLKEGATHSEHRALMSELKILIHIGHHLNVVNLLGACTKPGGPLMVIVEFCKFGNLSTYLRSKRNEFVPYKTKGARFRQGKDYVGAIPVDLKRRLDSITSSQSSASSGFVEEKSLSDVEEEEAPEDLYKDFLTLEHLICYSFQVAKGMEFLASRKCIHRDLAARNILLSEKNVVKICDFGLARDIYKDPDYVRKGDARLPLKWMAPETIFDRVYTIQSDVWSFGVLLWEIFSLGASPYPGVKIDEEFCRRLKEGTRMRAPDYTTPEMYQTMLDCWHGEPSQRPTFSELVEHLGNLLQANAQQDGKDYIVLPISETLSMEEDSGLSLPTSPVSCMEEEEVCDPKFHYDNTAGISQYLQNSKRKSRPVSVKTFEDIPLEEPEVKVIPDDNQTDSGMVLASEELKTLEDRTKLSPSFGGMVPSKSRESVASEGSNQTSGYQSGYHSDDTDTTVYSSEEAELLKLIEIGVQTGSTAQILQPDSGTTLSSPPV

SMILES | Cell Death (%) at Tested Concentration ([2]; 0.25 uM) [%] | Cell Death (%) at Tested Concentration ([2]; 3.0 uM) [%] | Cell Death (%) at Tested Concentration ([2]; 5.0 uM) [%] | Cell Death (%) at Tested Concentration ([3]; 0.25 uM) [%] | Cell Death (%) at Tested Concentration ([3]; 3.0 uM) [%] | cytotoxicity at 1 µM [5] [%] | cytotoxicity at 2.5 µM [5] [%] | cytotoxicity at 5 µM [5] [%] | cytotoxicity at 7.5 µM [5] [%] | cytotoxicity at 10 µM [5] [%] | cytotoxicity at 1 µM ([6]; 72 h, 3-day treatment) [%] | cytotoxicity at 2.5 µM ([6]; 72 h, 3-day treatment) [%] | cytotoxicity at 5 µM ([6]; 72 h, 3-day treatment) [%] | cytotoxicity at 7.5 µM ([6]; 72 h, 3-day treatment) [%] | cytotoxicity at 10 µM ([6]; 72 h, 3-day treatment) [%] | cytotoxicity at 1 µM ([6]; 168 h, 7-day treatment) [%] | cytotoxicity at 2.5 µM ([6]; 168 h, 7-day treatment) [%] | cytotoxicity at 5 µM ([6]; 168 h, 7-day treatment) [%] | cytotoxicity at 7.5 µM ([6]; 168 h, 7-day treatment) [%] | cytotoxicity at 10 µM ([6]; 168 h, 7-day treatment) [%] | further results
Cn1cnc2c(F)c(Nc3ccc(Br)cc3Cl)c(C(=O)NOCCO)cc21 [AZD-6244, reference compound] | – | – | – | – | – | – | – | – | – | – | – | – | – | – | – | – | – | – | – | – | Cell Death (%), AZD-6244 alone ([1]; AZD-6244 0.5 μM, no other compound (0)): 2.3%
CNC(=O)c1cc(Oc2ccc(NC(=O)Nc3cccc(S(F)(F)(F)(F)F)c3)cc2)ccn1 [Example 1, N-methyl-4-[4-({[3-(pentafluoro-λ^6-sulfanyl)phenyl]carbamoyl}amino)phenoxy]pyridine-2-carboxamide] | 3.8 | 22.3 | 92.7 | 2.6 | 32.4 | 2 | 5.1 | 18.3 | 52.7 | 72.3 | 1.6 | 1.5 | 1.3 | 7.3 | 62.5 | 1.6 | 2.8 | 2.8 | 99 | 99 | inhibition at 0.1 µM (BRAF): 18%; inhibition at 0.1 µM (FLT3): 85%; inhibition at 0.1 µM (KDR(VEGFR2)): 79%; Cell Death (%) at Tested Concentration ([3]; 5.0 uM): 84.5%; Cell Death (%) at Tested Concentration ([4]; 2.5 uM): 12.4%; Cell Death (%) at Tested Concentration ([4]; 5.0 uM): 14.5%; Cell Death (%) at Tested Concentration ([4]; 10 uM): 68.7%; Cell Death (%) in combination with AZD-6244 ([1]; AZD-6244 0 μM): 2.3%; Cell Death (%) in combination with AZD-6244 ([1]; AZD-6244 0.5 μM): 99%
CNC(=O)c1cc(Oc2ccc(NC(=O)Nc3cccc(S(F)(F)(F)(F)F)c3)c(F)c2)ccn1 [Example 2, 4-[3-fluoro-4-({[3-(pentafluoro-λ^6-sulfanyl)phenyl]carbamoyl}amino)phenoxy]-N-methylpyridine-2-carboxamide] | 4.1 | 92.7 | 98.5 | 2.2 | 94.7 | 2.4 | 7.3 | 42.6 | 72.6 | 75.2 | 1.7 | 1.8 | 1.6 | 4.2 | 83.7 | 1.5 | 2.7 | 2.5 | 17.3 | 99 | inhibition at 0.1 µM (BRAF): 14%; inhibition at 0.1 µM (FLT3): 71%; inhibition at 0.1 µM (KDR(VEGFR2)): 76%; Cell Death (%) at Tested Concentration ([3]; 5.0 uM): 99%; Cell Death (%) at Tested Concentration ([4]; 2.5 uM): 12.3%; Cell Death (%) at Tested Concentration ([4]; 5.0 uM): 14.7%; Cell Death (%) at Tested Concentration ([4]; 10 uM): 24.8%; Cell Death (%) in combination with AZD-6244 ([1]; AZD-6244 0 μM): 3.6%; Cell Death (%) in combination with AZD-6244 ([1]; AZD-6244 0.5 μM): 99%
CNC(=O)c1cc(Oc2ccc(NC(=O)Nc3ccc(Cl)c(S(F)(F)(F)(F)F)c3)cc2)ccn1 [Example 3, 4-[4-({[4-chloro-3-(pentafluoro-λ^6-sulfanyl)phenyl]carbamoyl}amino)phenoxy]-N-methylpyridine-2-carboxamide] | 3.3 | 25.6 | 90.7 | 2.7 | 4.2 | 2.7 | 4.5 | 53.8 | 79.6 | 87.6 | 1.3 | 1.9 | 4.3 | 13.4 | 91.8 | 2.3 | 2.8 | 99 | 99 | 99 | inhibition at 0.1 µM (BRAF): 11%; inhibition at 0.1 µM (FLT3): 72%; inhibition at 0.1 µM (KDR(VEGFR2)): 64%; Cell Death (%) at Tested Concentration ([3]; 5.0 uM): 14.6%; Cell Death (%) at Tested Concentration ([4]; 2.5 uM): 11.4%; Cell Death (%) at Tested Concentration ([4]; 5.0 uM): 16.7%; Cell Death (%) at Tested Concentration ([4]; 10 uM): 30.7%; Cell Death (%) in combination with AZD-6244 ([1]; AZD-6244 0 μM): 1.9%; Cell Death (%) in combination with AZD-6244 ([1]; AZD-6244 0.5 μM): 94.6%
CNC(=O)c1cc(Oc2ccc(NC(=O)Nc3cc(S(F)(F)(F)(F)F)ccc3Cl)cc2)ccn1 [Example 5, 4-[4-({[2-chloro-5-(pentafluoro-λ^6-sulfanyl)phenyl]carbamoyl}amino)phenoxy]-N-methylpyridine-2-carboxamide] | – | – | – | – | – | 1.7 | 3.1 | 4.3 | 17.2 | 19.8 | 1 | 1.5 | 1.4 | 2.1 | 7.6 | 1.8 | 1.9 | 2.3 | 4.6 | 14.7 | –
CNC(=O)c1cc(Oc2ccc(NC(=O)Nc3cc(S(F)(F)(F)(F)F)ccc3Cl)c(F)c2)ccn1 [Example 6, 4-[4-({[2-chloro-5-(pentafluoro-λ^6-sulfanyl)phenyl]carbamoyl}amino)-3-fluorophenoxy]-N-methylpyridine-2-carboxamide] | 3.9 | 38.4 | 89.6 | 2.6 | 90.7 | 2 | 2.2 | 7.4 | 32.1 | 35.4 | 1.1 | 1.3 | 1.2 | 3.6 | 4.3 | 1.7 | 1.9 | 2.4 | 4.8 | 13.4 | Cell Death (%) at Tested Concentration ([3]; 5.0 uM): 99%; Cell Death (%) at Tested Concentration ([4]; 2.5 uM): 11.7%; Cell Death (%) at Tested Concentration ([4]; 5.0 uM): 13.4%; Cell Death (%) at Tested Concentration ([4]; 10 uM): 22.1%; Cell Death (%) in combination with AZD-6244 ([1]; AZD-6244 0 μM): 2.1%; Cell Death (%) in combination with AZD-6244 ([1]; AZD-6244 0.5 μM): 99%

From US8937088B2, “Ureas for the treatment and prevention of cancer” (Astar Biotech LLC, priority 2011, dated 2015)
